The values that follow come from patent US9206167B2, “Piperazine-substituted benzothiophenes for treatment of mental disorders” (Otsuka Pharmaceutical Co., Ltd., priority 2005, dated 2015).

Assay [1] has as its target Serotonin (5-HT) uptake (Rattus norvegicus (Rat), UniProt P31652). As to the kind of experiment: Serotonin (5-HT) uptake inhibitory activity by rat brain synaptosome. The class given is biochemical. As to conditions: test compound 300 nM, rat frontal cortex synaptosome; read-out: Serotonin uptake inhibitory ratio (%) (300 nM). On the procedure:
Measurement of Serotonin (5-HT) Uptake Inhibitory Activity of a Test Compound by Rat Brain Synaptosome
Wistar male rats were decapitated, the brain was retrieved and frontal cortex was dissected out, and it was homogenized in 0.32 M sucrose solution of a weight 20 times of the weight of the tissue using a Potter type homogenizer. The homogenate was centrifuged at 4° C., 1,000×g for 10 minutes, the obtained supernatant was further centrifuged at 4° C., 20,000×g for 20 minutes, and the pellet was suspended in an incubation buffer (20 mM Hepes buffer (pH 7.4) containing 10 mM glucose, 145 mM sodium chloride, 4.5 mM potassium Chloride, 1.2 mM magnesium chloride, 1.5 mM calcium chloride), which was used as crude synaptosome fraction.
5-HT uptake reaction was performed in a volume of 200 μl using a 96-well round bottom plate and pargyline (final concentration 10 μM) and sodium ascorbate (final concentration 0.2 mg/ml) were contained in the incubation buffer upon reaction and used.
Incubation buffer (total counting), non-labeled 5-HT (final concentration 10 μM, non-specific counting) and the diluted test compound (final concentration 300 nM) were added to each well. One-tenth quantity of the final volume of the synaptosome fraction was added and after preincubated at 37° C. for 10 minutes, tritium labeled 5-HT solution (final concentration 8 nM) was added and uptake reaction was started at 37° C. The uptake time was 10 minutes and the reaction was terminated by vacuum filtration through a 96-well fiber glass filter paper plate, and after the filter paper was washed with cold normal saline, it was dried enough and Microscint0 (Perkin-Elmer) was added to the filter and remaining radioactivity on the filter was measured.

Assay [2] has as its target Serotonin 5-HT2A receptor (Rattus norvegicus (Rat), UniProt P14842). In words: Serotonin 5-HT2A receptor binding assay ([3H]-Ketanserin, rat frontal cortex membrane). The note with it: Ki from IC50 by Cheng-Prussoff formula. As to the method:
2) Serotonin 5-HT2A Receptor Binding Assay
The assay was performed according to the method by Leysen J E et al. (Leysen J E, Niemegeers C J E, Van Nueten J M and Laduron P M. [3H] Ketanserin (R 41 468), a selective 3H-ligand for serotonin 2 receptor binding sites. Mol. Pharmacol., 1982, 21: 301-314).
Wistar male rats were decapitated, the brain was retrieved immediately and frontal cortex was taken out. It was homogenized in 0.25 M sucrose of a volume 10 times of the weight of the tissue using a Teflon glass homogenizer, and centrifuged at 4° C., 1,000×g for 10 minutes. The obtained supernatant was transferred to another centrifuge tube and suspended in 0.25 M sucrose of a volume 5 times of the weight of the tissue and the precipitate was centrifuged in the above-described condition. The obtained supernatant was combined with the supernatant obtained above and adjusted to a volume 40 times of the weight of the tissue with 50 mM Tris-hydrochloric acid buffer (pH 7.4), and centrifuged at 4° C., 35,000×g for 10 minutes. The obtained precipitate was suspended again in the above-described buffer of a volume 40 times of the weight of the tissue and centrifuged in the above-described condition. The obtained precipitate was suspended in the above-described buffer of a volume 20 times of the weight of the tissue and preserved by freezing at −85° C. till it was used for binding assay as a membrane specimen.
The binding assay was performed using 40 μl of the membrane specimen, 20 μl of [^3H]-Ketanserin (final concentration 1 to 3 nM), 20 μl of a test drug and 50 mM Tris-hydrochloric acid buffer (pH 7.4) so that the total amount was 200 μl (final dimethylsulfoxide concentration 1%). The reaction was performed at 37° C. for 20 minutes and terminated by conducting suction filtration with a cell harvester on a glass fiber filter plate.
The filter plate made of glass fiber was washed with 50 mM Tris-hydrochloric acid buffer (pH 7.4), and after dried, a microplate liquid scintillation cocktail was added and the radioactivity was measured with a microplate scintillation counter. Radioactivity in the presence of 10 μM spiperone was assumed as nonspecific binding.
(§1) IC50 value was calculated from concentration-dependent reaction using a non-linear analysis program. Ki value was calculated from IC50 value using Cheng-Prussoff formula.

Assay [3] has as its target Dopamine D2 receptor (Rattus norvegicus (Rat), UniProt P61169). In words: Dopamine D2 receptor binding assay ([3H]-raclopride, rat corpus striatum membrane). The note with it: Ki from IC50 by Cheng-Prussoff formula. As to the method: Pharmacological Test 1 1) Dopamine D2 Receptor Binding Assay
Wistar male rats were decapitated, the brain was retrieved immediately and corpus striatum was taken out. It was homogenized in 50 mM tris(hydroxymethyl)aminomethane (Tris)-hydrochloric acid buffer (pH 7.4) of a volume 50 times of the weight of the tissue using a homogenizer with a high-speed rotating blade, and centrifuged at 4° C., 48,000×g for 10 minutes. The obtained precipitate was suspended again in the above-described buffer of a volume 50 times of the weight of the tissue and after incubated at 37° C. for 10 minutes, centrifuged in the above-described condition. The obtained precipitate was suspended in 50 mM (Tris)-hydrochloric acid buffer (containing 120 mM NaCl, 5 mM KCl, 2 mM CaCl2, 1 mM MgCl2, pH 7.4) of a volume 25 times of the weight of the tissue and preserved by freezing at −85° C. till it was used for binding assay as a membrane specimen.
The binding assay was performed using 40 μl of the membrane specimen, 20 μl of [^3H]-raclopride (final concentration 1 to 2 nM), 20 μl of a test drug and 50 mM Tris-hydrochloric acid buffer (containing 120 mM NaCl, 5 mM KCl, 2 mM CaCl2, 1 mM MgCl2, pH 7.4) so that the total amount was 200 μl (final dimethylsulfoxide concentration 1%). The reaction was performed at room temperature for 1 hour and terminated by conducting suction filtration with a cell harvester on a glass fiber filter plate. The filter plate made of glass fiber was washed with 50 mM Tris-hydrochloric acid buffer (pH 7.4), and after dried, a microplate liquid scintillation cocktail was added and the radioactivity was measured with a microplate scintillation counter. Radioactivity in the presence of 10 μM (+)-butaclamol hydrochloride was assumed as nonspecific binding.
as §1

The target of assay [4] is Human recombinant dopamine D2 receptor (Homo sapiens (Human), UniProt P14416). As to conditions: forskolin-stimulated D2 expressing CHO/DHFR(-) cells, control drug. On the procedure:
Partial agonistic activity on dopamine D2 receptor was evaluated by quantitatively determining cyclic AMP production inhibitory effect of a test compound in dopamine D2 receptor expression cells in which adenosine 3′,5′-cyclic monophosphate (cyclic AMP) production was induced by forskolin stimulation.
Human recombinant dopamine D2 receptor expressing Chinese hamster ovary/DHFR(−) cells were cultured in a culture medium (Iscove's Modified Dulbecco's Medium (IMDM culture medium), 10% fetal bovine serum, 50 I.U./ml penicillin, 50 μg/ml streptomycin, 200 μg/ml geneticin, 0.1 mM sodium hypoxanthine, 16 μM thymidine) at 37° C. and 5% carbon dioxide condition. Cells were seeded at 10^4 cells/well on a 96-well microtiter plate coated with poly-L-lysine and grown under the same condition for 2 days. Each well was washed with 100 μl of a culture medium (IMDM culture medium, 0.1 mM sodium hypoxanthine, 16 μM thymidine).

Serotonin (5-HT) uptake, sequence (P31652 whole entry): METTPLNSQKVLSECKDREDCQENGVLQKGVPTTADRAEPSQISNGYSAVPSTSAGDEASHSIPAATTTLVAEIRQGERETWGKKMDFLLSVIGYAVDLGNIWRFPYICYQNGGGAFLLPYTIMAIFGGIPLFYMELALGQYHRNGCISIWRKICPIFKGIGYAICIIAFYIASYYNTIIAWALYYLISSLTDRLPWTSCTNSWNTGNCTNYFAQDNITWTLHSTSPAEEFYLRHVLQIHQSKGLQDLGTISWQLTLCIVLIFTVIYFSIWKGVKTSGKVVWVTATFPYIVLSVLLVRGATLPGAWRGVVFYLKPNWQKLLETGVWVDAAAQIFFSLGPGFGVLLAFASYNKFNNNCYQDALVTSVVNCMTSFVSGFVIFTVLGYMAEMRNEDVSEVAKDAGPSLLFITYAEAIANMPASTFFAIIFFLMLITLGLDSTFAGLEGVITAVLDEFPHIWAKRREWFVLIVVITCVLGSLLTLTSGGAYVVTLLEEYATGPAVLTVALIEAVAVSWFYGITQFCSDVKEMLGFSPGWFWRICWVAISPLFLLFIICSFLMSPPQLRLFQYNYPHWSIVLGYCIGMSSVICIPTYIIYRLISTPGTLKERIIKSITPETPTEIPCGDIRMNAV
Dopamine D2 receptor, sequence (P61169 whole entry): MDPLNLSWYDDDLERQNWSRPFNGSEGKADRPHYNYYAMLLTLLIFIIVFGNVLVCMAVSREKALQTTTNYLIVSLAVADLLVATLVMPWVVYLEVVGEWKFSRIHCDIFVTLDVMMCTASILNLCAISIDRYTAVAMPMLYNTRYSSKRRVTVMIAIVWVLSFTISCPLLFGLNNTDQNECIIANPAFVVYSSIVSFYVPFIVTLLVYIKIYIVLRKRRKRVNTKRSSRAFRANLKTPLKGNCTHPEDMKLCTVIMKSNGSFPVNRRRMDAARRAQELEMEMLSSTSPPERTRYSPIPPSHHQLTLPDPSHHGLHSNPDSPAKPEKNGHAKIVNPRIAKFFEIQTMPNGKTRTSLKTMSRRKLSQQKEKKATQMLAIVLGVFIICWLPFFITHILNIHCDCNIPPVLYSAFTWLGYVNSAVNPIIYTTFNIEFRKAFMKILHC
Serotonin 5-HT2A receptor, sequence (P14842 whole entry): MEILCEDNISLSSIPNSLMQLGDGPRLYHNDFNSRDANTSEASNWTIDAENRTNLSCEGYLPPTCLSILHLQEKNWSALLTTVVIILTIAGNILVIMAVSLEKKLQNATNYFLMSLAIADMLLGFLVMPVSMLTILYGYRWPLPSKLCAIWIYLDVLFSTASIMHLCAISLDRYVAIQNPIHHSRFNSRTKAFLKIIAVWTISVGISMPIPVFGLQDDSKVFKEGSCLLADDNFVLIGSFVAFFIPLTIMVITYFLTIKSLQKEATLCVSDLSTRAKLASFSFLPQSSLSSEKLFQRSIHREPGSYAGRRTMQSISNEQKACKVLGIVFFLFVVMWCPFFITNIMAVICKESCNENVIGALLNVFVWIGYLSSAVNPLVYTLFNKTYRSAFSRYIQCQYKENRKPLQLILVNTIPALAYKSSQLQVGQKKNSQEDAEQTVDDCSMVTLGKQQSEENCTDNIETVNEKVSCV
Human recombinant dopamine D2 receptor, sequence (P14416 whole entry): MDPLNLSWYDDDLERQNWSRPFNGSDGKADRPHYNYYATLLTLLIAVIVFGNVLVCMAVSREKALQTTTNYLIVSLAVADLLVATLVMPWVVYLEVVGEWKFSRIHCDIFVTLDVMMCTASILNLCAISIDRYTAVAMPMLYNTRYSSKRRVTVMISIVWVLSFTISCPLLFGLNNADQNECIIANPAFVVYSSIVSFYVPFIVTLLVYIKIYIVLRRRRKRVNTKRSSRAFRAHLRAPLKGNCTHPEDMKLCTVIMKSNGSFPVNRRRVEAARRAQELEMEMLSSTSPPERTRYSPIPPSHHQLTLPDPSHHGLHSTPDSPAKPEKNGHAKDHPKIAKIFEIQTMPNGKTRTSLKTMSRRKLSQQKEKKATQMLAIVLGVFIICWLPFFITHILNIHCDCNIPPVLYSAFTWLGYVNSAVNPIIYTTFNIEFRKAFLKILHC

Consider `Cc1cc(=O)[nH]c2cc(OCCCCN3CCN(c4cccc5sccc45)CC3)ccc12` [Example 4, 7-[4-(4-benzo[b]thiophen-4-yl-piperazin-1-yl)butoxy]-4-methyl-1H-quinolin-2-one], for which the inhibition at 0.3 µM in assay [1] is 91%. The Ki in assay [2] amounted to 4.9 nM; in assay [3] it was 0.5 nM.

`Cc1cc2ccc(OCCCN3CCN(c4cccc5sccc45)CC3)cc2[nH]c1=O` [Example 5, 7-[3-(4-benzo[b]thiophen-4-yl-piperazin-1-yl)propoxy]-3-methyl-1H-quinolin-2-one]: the inhibition at 0.3 µM in assay [1] was 89.1%. Moreover, the results for the inhibitory constant (Ki) in assay [2] and in assay [3] were 6.4 nM and 0.6 nM, respectively.

On to `O=c1ccc2ccc(OCCCN3CCN(c4cccc5sccc45)CC3)cc2[nH]1` [Example 7, 7-[3-(4-benzo[b]thiophen-4-yl-piperazin-1-yl)propoxy]-1H-quinolin-2-one], for which the inhibition at 0.3 µM in assay [1] turned out to be 91%. Moreover, the Ki in assay [2] worked out at 4 nM; in assay [3] it was 0.5 nM.

With `O=C1CCc2ccc(OCCCN3CCN(c4cccc5sccc45)CC3)cc2N1` [Example 10, 7-[3-(4-benzo[b]thiophen-4-yl-piperazin-1-yl)propoxy]-3,4-dihydro-1H-quinolin-2-one], the inhibition at 0.3 µM in assay [1] stood at 92.6%. The values for the inhibition constant Ki in assay [2] and in assay [3] were 3 nM and 0.4 nM, respectively.

Regarding `O=C1CCc2ccc(OC/C=C/CN3CCN(c4cccc5sccc45)CC3)cc2N1` [Example 15, 7-[4-(4-benzo[b]thiophen-4-yl-piperazin-1-yl)-(E)-2-butenyloxy]-3,4-dihydro-1H-quinolin-2-one], in assay [1], the inhibition at 0.3 µM turned out to be 87.2%. In addition, the Ki was 3.3 nM in assay [2] and 0.2 nM in assay [3].

`CC1CC(=O)Nc2cc(OCCCCN3CCN(c4cccc5sccc45)CC3)ccc21` (stereo not shown) [Example 16, 7-[4-(4-benzo[b]thiophen-4-yl-piperazin-1-yl)butoxy]-4-methyl-3,4-dihydro-1H-quinolin-2-one]: in assay [1], the inhibition at 0.3 µM came to 86.7%. In addition, the inhibition constant Ki in assay [2] is 7 nM; in assay [3] it was 0.7 nM.

In the case of `O=C1CCc2cc(OCCCCN3CCN(c4cccc5sccc45)CC3)ccc2N1` [Example 20, 6-[4-(4-benzo[b]thiophen-4-yl-piperazin-1-yl)butoxy]-3,4-dihydro-1H-quinolin-2-one], in assay [1], the inhibition at 0.3 µM was 92.8%. In addition, the Ki in assay [2] came to 3.3 nM; in assay [3], 1.5 nM.

With `O=C1c2ccccc2CCN1CCCCCN1CCN(c2cccc3sccc23)CC1` [Example 24, 2-[5-(4-benzo[b]thiophen-4-yl-piperazin-1-yl)pentyl]-3,4-dihydro-2H-isoquinolin-1-one], the inhibition at 0.3 µM in assay [1] is 97.5%. Also, the inhibitory constant (Ki) in assay [2] turned out to be 2.3 nM; in assay [3], 5 nM.

As for `CN1CCc2cc(OCCCN3CCN(c4cccc5sccc45)CC3)ccc2C1=O` [Example 26, 6-[3-(4-benzo[b]thiophen-4-yl-piperazin-1-yl)propoxy]-2-methyl-3,4-dihydro-2H-isoquinolin-1-one], the inhibition at 0.3 µM in assay [1] was found to be 92%. The Ki in assay [2] was found to be 4.4 nM; in assay [3], 3.5 nM.

`CCN1CCc2cc(OCCCN3CCN(c4cccc5sccc45)CC3)ccc2C1=O` [Example 27, 6-[3-(4-benzo[b]thiophen-4-yl-piperazin-1-yl)propoxy]-2-ethyl-3,4-dihydro-2H-isoquinolin-1-one]: the inhibition at 0.3 µM in assay [1] was determined as 94%. In addition, the inhibitory constant (Ki) in assay [2] was 4.1 nM; in assay [3], 4.9 nM.

`O=c1c2ccccc2ccn1CCCCN1CCN(c2cccc3sccc23)CC1` [Example 34, 2-[4-(4-benzo[b]thiophen-4-yl-piperazin-1-yl)butyl]-2H-isoquinolin-1-one]: in assay [1], the inhibition at 0.3 µM was 94.2%. Also, the inhibition constant Ki amounted to 1.5 nM in assay [2] and 1.2 nM in assay [3].

As to `O=c1[nH]ccc2cc(OCCCN3CCN(c4cccc5sccc45)CC3)ccc12` [Example 40, 6-[3-(4-benzo[b]thiophen-4-yl-piperazin-1-yl)propoxy]-2H-isoquinolin-1-one], in assay [1], the inhibition at 0.3 µM was 91.6%. For the same molecule, the Ki in assay [2] amounted to 5.1 nM; in assay [3], 4.8 nM.

Consider `NCCc1ccc(O)c(O)c1` [dopamine], for which, in assay [4], the “quantity of cyclic AMP as the maximum activity (well without test compound = 100%)” value is on record as “about 10%”.
